The record followed here is article PMC11790956, “A microscale thermophoresis-based enzymatic RNA methyltransferase assay enables the discovery of DNMT2 inhibitors” (Communications Chemistry, 2025).

For one assay, the target named is T1, METTL3/14 (Homo sapiens, UniProt Q86U44).
T1 construct: purchased BPS Bioscience BPS-100105
Kind of assay: METTL3/14 enzymatic split aptamer MST assay. As to conditions: 500 µM of hit compound, Fig. 5D. The format is biochemical.

The target of the next assay is T2, NSUN2 (Homo sapiens, UniProt Q08J23).
T2 construct: made in house
T2 sequence (Q08J23 whole entry, species assumed): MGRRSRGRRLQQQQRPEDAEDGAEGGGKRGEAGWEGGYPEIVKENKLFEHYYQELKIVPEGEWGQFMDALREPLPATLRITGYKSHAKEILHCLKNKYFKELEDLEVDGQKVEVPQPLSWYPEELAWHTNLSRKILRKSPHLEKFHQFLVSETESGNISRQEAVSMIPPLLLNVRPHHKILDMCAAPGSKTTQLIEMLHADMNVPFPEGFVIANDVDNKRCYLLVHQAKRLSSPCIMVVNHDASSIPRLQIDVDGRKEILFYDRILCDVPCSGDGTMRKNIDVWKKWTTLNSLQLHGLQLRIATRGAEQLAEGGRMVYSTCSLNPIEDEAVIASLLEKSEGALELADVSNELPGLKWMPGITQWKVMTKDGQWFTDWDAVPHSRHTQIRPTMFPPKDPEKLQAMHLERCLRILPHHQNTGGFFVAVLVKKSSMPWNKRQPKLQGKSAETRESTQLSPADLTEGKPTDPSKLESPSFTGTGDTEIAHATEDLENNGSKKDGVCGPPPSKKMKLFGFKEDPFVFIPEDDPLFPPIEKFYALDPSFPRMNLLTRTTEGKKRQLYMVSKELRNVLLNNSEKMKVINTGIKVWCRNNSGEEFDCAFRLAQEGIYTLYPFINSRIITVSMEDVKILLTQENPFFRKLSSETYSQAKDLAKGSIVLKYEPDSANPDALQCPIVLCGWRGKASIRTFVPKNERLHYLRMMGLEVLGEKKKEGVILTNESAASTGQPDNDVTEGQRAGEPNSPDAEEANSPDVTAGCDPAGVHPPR
Kind of assay: NSUN2 enzymatic split aptamer MST assay (selectivity panel). It is filed as biochemical. As to conditions: 500 µM of hit compound, Fig. 5D. The source says: Next, we investigated the target selectivity of all hit compounds by inhibition experiments using the MTases characterized in this study (DNMT2, METTL3/14, TrmD, and NSUN2) as a selectivity panel. […] While Cpd3 (alexidine) could be identified as a DNMT2 inhibitor during MST- and FP- experiments, the ligand’s hydrophobic nature raised the concern this compound might be an aggregator of DNMT2. To exclude this possibility, we investigated the reversibility of alexidine binding using the FP displacement assay and separation of the alexidine ligand by small-scale size-exclusion chromatography (SEC)[34].
NSUN2: 50 mM Tris-HCl, pH 7.5, 5 mM EDTA, 5 mM MgCl2, 1.5 mM DTT. 200 nM NSUN2, 1 µM SAM, 250 ng/µL tRNA (total from E. coli). […]
MST experiments were carried out in at least technical triplicates using a Monolith NT.115 instrument (NanoTemper Technologies) using Monolith standard capillaries and the blue excitation laser setup. […] General settings were applied for all MST experiments as follows: manual temperature control: 25 °C, fluorescence measurement before MST: 4 s, MST (IR laser) on: 20 s, fluorescence after MST: 2 s, delay: 25 s. The laser power was adjusted to optimize the signal-to-noise ratio and the fluorescence signal. […] MST measurements were analyzed using the NT analysis software (version 1.5.41) and exported for statistical analysis and plotting in GraphPad Prism 7.01.

T1 sequence (Q86U44 2-580 limits assumed): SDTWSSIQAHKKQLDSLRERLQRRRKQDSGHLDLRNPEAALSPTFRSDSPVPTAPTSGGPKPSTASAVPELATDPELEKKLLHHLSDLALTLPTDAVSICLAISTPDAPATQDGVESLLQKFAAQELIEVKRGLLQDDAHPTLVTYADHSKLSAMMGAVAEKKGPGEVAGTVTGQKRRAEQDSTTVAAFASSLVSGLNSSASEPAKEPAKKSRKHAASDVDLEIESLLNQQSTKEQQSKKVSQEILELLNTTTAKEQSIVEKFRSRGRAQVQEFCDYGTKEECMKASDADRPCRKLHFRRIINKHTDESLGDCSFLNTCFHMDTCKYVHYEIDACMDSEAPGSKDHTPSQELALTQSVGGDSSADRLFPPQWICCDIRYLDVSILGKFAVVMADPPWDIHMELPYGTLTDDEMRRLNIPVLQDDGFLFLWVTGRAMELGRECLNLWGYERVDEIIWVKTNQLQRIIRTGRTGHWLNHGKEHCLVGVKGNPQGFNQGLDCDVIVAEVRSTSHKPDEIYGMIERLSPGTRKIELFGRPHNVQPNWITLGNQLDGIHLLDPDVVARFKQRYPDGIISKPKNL
T1 sequence (Q9HCE5 2-456 partner limits assumed): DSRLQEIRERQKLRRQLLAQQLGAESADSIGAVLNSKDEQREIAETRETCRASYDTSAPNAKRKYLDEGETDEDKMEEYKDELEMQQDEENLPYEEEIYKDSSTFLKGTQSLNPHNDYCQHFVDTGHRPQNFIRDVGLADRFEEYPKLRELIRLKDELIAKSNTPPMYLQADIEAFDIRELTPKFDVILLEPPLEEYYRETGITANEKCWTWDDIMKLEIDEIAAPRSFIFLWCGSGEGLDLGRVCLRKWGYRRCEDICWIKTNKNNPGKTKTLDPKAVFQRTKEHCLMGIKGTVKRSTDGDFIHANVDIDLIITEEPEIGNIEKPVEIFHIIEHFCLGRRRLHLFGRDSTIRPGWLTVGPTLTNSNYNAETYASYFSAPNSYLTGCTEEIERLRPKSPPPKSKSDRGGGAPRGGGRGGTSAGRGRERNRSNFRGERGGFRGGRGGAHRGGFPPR
Procedure for METTL3/14: Specifically, we studied the m^6A MTase METTL3/14 and the m^7G MTase S. aureus TrmD.
For MTase assay detection by MST, enzyme reaction mixtures with a total volume of 10 µL per single treatment condition were prepared and incubated for the desired reaction times. Inhibitors were added from corresponding DMSO stocks to a final DMSO concentration of max. […] Afterward, reactions were quenched at a given reaction time by the addition of 1 µL sodium dodecyl sulfate (SDS, solution, 3% in water) per 10 µL reaction mixture and mixed well by pipetting. […]
MST experiments were carried out in at least technical triplicates using a Monolith NT.115 instrument (NanoTemper Technologies) using Monolith standard capillaries and the blue excitation laser setup. […] General settings were applied for all MST experiments as follows: manual temperature control: 25 °C, fluorescence measurement before MST: 4 s, MST (IR laser) on: 20 s, fluorescence after MST: 2 s, delay: 25 s. The laser power was adjusted to optimize the signal-to-noise ratio and the fluorescence signal. LED and MST power settings were chosen individually for each sample by adjusting the LED power to yield fluorescence signals of at least 300 units (blue laser) or 3000 units (red laser) and the MST power to achieve an appropriate thermophoretic response (standard setting: medium MST power). […]

As to `C=CC(=O)NC(=O)NC12CC3CC(CC(C3)C1)C2` [Cpd 11, 1-(adamantan-1-yl)-3-(prop-2-enoyl)urea], on METTL3/14, the “inhibition of METTL3/14 (selectivity panel)” value is listed as “did not inhibit”. In addition, the “inhibition of NSUN2 (selectivity panel)” value against NSUN2 is “did not inhibit”.
